{"source": "patent US20100254914A1", "about": "“NANOWORMS FOR IN VIVO TUMOR TARGETING” (THE REGENTS OF THE UNIVERSITY OF CALIFORNIA, priority 2009, published 2010)", "molecules": {"B1": {"name": "LyP-1 peptide-conjugated magnetic nanoworms (LyP1NWs) (peptide)", "peptide": "CGNKRTRGC", "modifications": "disulfide 1-9 (inferred); not fully specified; printed as Cys-Gly-Asn-Lys-Arg-Thr-Arg-Gly-Cys; also: peptide is cyclic, conjugated via PEG crosslinker to Cy5.5-labeled dextran iron oxide nanoworm, extra Cys added for conjugation, position not given here", "notes": "also called Lyp1-conjugated Cy5.5-labeled magnetic nanoworms; LyP1-conjugated NWs"}}, "key": {"MDA-MB-435 tumors [1]": {"tested_on": "MDA-MB-435 tumors", "assay": "In vivo tumor homing, MDA-MB-435 xenograft", "set-up": "species or system Nude BALB/c mice", "settings": "for tumor uptake / targeting efficiency: 24 hrs post-injection", "method": "(§1) In vivo tumor homing. MDA-MB-435 human breast carcinoma cells or HT1080 human fibrosarcoma cells (1×10^6) were injected into the mammary fat pad or subcutaneously injected into Nude BALB/c mice, respectively. Tumors were used when they reached ˜0.5 cm in size. Some 0.2 cm or 1 cm tumors were used to compare the dependence of tumor size on NW homing. Cy7-labed or non-labeled NW or NS were intravenously injected into mice (n=3˜8 for each formulation) with a dose of 1 mg Fe/kg body mass (for fluorescence studies) and 3 mg Fe/kg body mass (for magnetization studies). For real-time observation of tumor/liver uptake, animals were imaged under anesthesia in Cy7 channel using the BonSai fluorescence-imaging system (Siemens, Pa., USA) 6 hrs, 24 hrs or 48 hrs after injection. For NIR fluorescence imaging of organs, animals were sacrificed 24 hrs after the injection by cardiac perfusion with PBS under anesthesia, and organs were dissected and imaged in Cy7 channel with a NIR fluorescence scanner (LI-COR biosciences, NE, USA). All the NIR images for animals or organs were taken at the same exposure time. To quantify the amount of NW or NS homing, collected tumors were weighed, freeze-dried in gelatin capsules, and then analyzed for magnetization using SQUID. For histologic analysis, frozen sections of tumors were prepared. The sections were fixed with 4% paraformaldehyde and stained with DAPI for observation of NW or NS only. The rat anti-mouse CD-31 (1:50, BD PharMingen) and biotinylated mouse fibrin(ogen) antiserum (1:50, Nordic) were used for immunochemicostaining of tumor tissue sections. The corresponding secondary antibodies were added and incubated for 1 hour at room temperature: AlexaFluor-594 goat anti-rat or rabbit IgG (1:1,000; Molecular Probes), streptavidin Alexa Fluor 594 (1:1000; Molecular Probes). The slides were washed three times with PBS and mounted in Vectashield Mounting Medium with DAPI. At least three images from representative microscopic fields were analyzed for each tumor sample."}, "MDA-MB-435 tumors [2]": {"tested_on": "MDA-MB-435 tumors", "assay": "In vivo temperature-induced tumor targeting of magnetic nanoworms, MDA-MB-435", "set-up": "species or system mice", "settings": "45° C. for 30 min, 24 hrs post-injection", "method": "In vivo temperature-induced tumor targeting of magnetic nanoworms. Mice bearing bilateral MDA-MB-435 human carcinoma tumors were intravenously injected with Cy7-labeled LyP1NWs or NWs and one flank of the mouse (containing one of the tumors) was immediately heated at 45° C. for 30 min in a temperature-controlled water bath. At 24 hrs post-injection, the tissues were harvested and the Cy7 fluorescence in tissues were imaged using NIR fluorescence imaging system (LI-COR Odyssey)."}, "C8161 tumors": {"tested_on": "C8161 tumors", "assay": "In vivo temperature-induced tumor targeting of magnetic nanoworms, C8161", "set-up": "species or system mice", "settings": "heated relative to unheated tumors"}, "MDA-MB-435 cells": {"tested_on": "MDA-MB-435 cells", "assay": "In vitro cellular fluorescence imaging with heating, MDA-MB-435", "format": "cell-based, human", "settings": "20 min at 45° C. vs 37° C., then 2 hr at 37° C.", "method": "(§2) In vitro cellular fluorescence imaging. The cells were treated with 80 ug Fe/mL of Cy5.5 labeled control NWs or LyP1NWs per well for 20 min at 37° C. or 45° C. in the presence of 10% FBS and incubated for an additional 2 hr at 37° C. in the presence of 10% FBS. The cells were then rinsed three times with cell medium, fixed, stained, and imaged by fluorescence microscopy."}, "C8161 cells": {"tested_on": "C8161 cells", "assay": "In vitro cellular fluorescence imaging with heating, C8161", "format": "cell-based", "settings": "20 min at 45° C. vs 37° C., then 2 hr at 37° C.", "method": "as §2"}, "[3]": {"assay": "Hydrodynamic size by dynamic light scattering", "format": "physicochemical", "settings": "Table 1", "text": "The nanostructure appears as linearly aggregated IO cores with a mean hydrodynamic size (in the long dimension) of 65 nm (FIG. 1a and Table 2). When a higher molecular mass dextran (40 kDa) was used branched IO cores were obtained, with a larger average size (˜100 nm) and a broader size distribution (FIG. 5). […] NW show a slightly larger saturation magnetization value (74.2 emu/gFe vs. 61.5 emu/gFe and 53.5 emu/gFe) and a higher MR contrast (R2=116 mMFe^−1S^−1 vs R2=70 mMFe^−1S^−1 and R2=95 mMFe^−1S^−1) than NS and Feridex (FIG. 1b). […]\nBlood half-life and biodistribution. To quantify the in vivo circulation times of NW or NS samples in Nude BALB/c mice (n=3-4 for each formulation), heparinized capillary tubes (Fisher) were used to draw 15 μL (for fluorescence) or 70 μl (for magnetization) of blood from the periorbital plexus at different times after intravenous injection of the NW or NS samples (1, 3, or 10 mg Fe/kg body mass). […] For Cy7-labeled NW or NS formulations, blood extracted at different times was imaged in a 96-well plate in Cy7 channel (762 nm excitation/800 nm emission) with a NIR fluorescence scanner (LI-COR biosciences, NE, USA). The images were analyzed using the ImageJ (NIH) or Osirix (Apple) programs. […] Organs and blood were immediately weighed, freeze-dried in gelatin capsules, and then analyzed for magnetization using SQUID."}, "HT1080 tumors": {"tested_on": "HT1080 tumors", "assay": "In vivo tumor homing, HT1080 xenograft", "set-up": "species or system Nude BALB/c mice", "method": "as §1, with “For histologic analysis, frozen sections of tumors were prepared. The sections were fixed with 4% paraformaldehyde and stained with DAPI for observation of NW or NS only. The rat anti-mouse CD-31 (1:50, BD PharMingen) and biotinylated mouse fibrin(ogen) antiserum (1:50, Nordic) were used for immunochemicostaining of tumor tissue sections. The corresponding secondary antibodies were added and incubated for 1 hour at room temperature: AlexaFluor-594 goat anti-rat or rabbit IgG (1:1,000; Molecular Probes), streptavidin Alexa Fluor 594 (1:1000; Molecular Probes). The slides were washed three times with PBS and mounted in Vectashield Mounting Medium with DAPI.” left out"}, "p32 or gC1qR receptor": {"target": "T1, p32 or gC1qR receptor (human, UniProt Q07021 74-282)", "T1 construct": "whole, on cells; Endogenous p32 on MDA-MB-435 cells and tumors, stained with an anti-p32 antibody; also called p32 receptors", "T1 sequence (looked up)": "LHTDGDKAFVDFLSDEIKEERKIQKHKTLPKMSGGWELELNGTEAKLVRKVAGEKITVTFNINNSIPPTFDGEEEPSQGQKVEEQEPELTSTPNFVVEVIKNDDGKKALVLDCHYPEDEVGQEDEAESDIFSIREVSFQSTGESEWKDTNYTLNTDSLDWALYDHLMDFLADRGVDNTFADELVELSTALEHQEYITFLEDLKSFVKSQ", "assay": "fluorescence microscopy of MDA-MB-435 cells, colocalization with anti-p32 stain"}, "[4]": {"settings": "compared with the other samples"}}, "note": "Bridge positions count the residues as written; N and C are the ends. Ends that are not written are not given here.", "data": [{"molecule": "NW-P-C: PEGylated CREKA-conjugated NW (family; ~60 CREKA peptides in the comparison) (not fully specified; also: CREKA conjugated via PEG to nanoworms (attachment site not given here))", "values": [{"measurement": "tumor uptake / targeting efficiency", "setting": "MDA-MB-435 tumors [1]", "result": "significantly greater"}]}, {"molecule": "LyP1NWs: LyP-1 peptide attached to Cy5.5-labeled aminated NWs via PEG crosslinker, ~40 peptides per nanoworm (CGNKRTRGC; disulfide 1-9 (inferred); not fully specified; printed as Cys-Gly-Asn-Lys-Arg-Thr-Arg-Gly-Cys; also: extra Cys added for conjugation, position not given here)", "values": [{"measurement": "targeting to heated tumors", "setting": "MDA-MB-435 tumors [2]", "result": "prominent relative to unheated tumors"}, {"measurement": "homing to heated tumors", "setting": "C8161 tumors", "result": "not significantly different"}, {"measurement": "binding and internalization upon heating", "setting": "MDA-MB-435 cells", "result": "Significant quantities"}, {"measurement": "binding and internalization upon heating", "setting": "C8161 cells", "result": "lower heat-mediated internalization"}]}, {"molecule": "NW-P175-C: NW with 175 amines to which CREKA is conjugated through a PEG spacer, 60 peptides (not fully specified; also: CREKA conjugated through PEG spacer to nanoworm with 175 amines, 60 peptides (attachment site not given here))", "values": [{"measurement": "Size [nm] (mean hydrodynamic size)", "setting": "[3]", "result": 85.0, "unit": "nm"}, {"measurement": "tumor uptake / targeting efficiency", "setting": "MDA-MB-435 tumors [1]", "result": "significantly higher levels of uptake"}, {"measurement": "tumor uptake / targeting efficiency", "setting": "MDA-MB-435 tumors [1]; listed as NW-P-175-C", "result": "best"}, {"measurement": "tumor:liver ratio (NIR fluorescence)", "setting": "MDA-MB-435 tumors [1]; [4]", "result": "significant increases"}, {"measurement": "tumor uptake / targeting efficiency", "setting": "HT1080 tumors; 24 hrs post-injection", "result": "best"}, {"measurement": "tumor:liver ratio (NIR fluorescence)", "setting": "HT1080 tumors; [4]", "result": "significant increases"}]}, {"molecule": "B1", "values": [{"measurement": "binding result", "setting": "p32 or gC1qR receptor", "result": "binds"}]}]}
